US11970479B2, “3-(1H-pyrazol-4-yl)pyridine allosteric modulators of the M4 muscarinic acetylcholine receptor” (Merck Sharp & Dohme LLC, priority 2018, dated 2024)

Target: T1, human M4 muscarinic acetylcholine receptor (Homo sapiens, UniProt P08173)
T1 construct: expressed in transfected cells
T1 sequence (P08173 1-479): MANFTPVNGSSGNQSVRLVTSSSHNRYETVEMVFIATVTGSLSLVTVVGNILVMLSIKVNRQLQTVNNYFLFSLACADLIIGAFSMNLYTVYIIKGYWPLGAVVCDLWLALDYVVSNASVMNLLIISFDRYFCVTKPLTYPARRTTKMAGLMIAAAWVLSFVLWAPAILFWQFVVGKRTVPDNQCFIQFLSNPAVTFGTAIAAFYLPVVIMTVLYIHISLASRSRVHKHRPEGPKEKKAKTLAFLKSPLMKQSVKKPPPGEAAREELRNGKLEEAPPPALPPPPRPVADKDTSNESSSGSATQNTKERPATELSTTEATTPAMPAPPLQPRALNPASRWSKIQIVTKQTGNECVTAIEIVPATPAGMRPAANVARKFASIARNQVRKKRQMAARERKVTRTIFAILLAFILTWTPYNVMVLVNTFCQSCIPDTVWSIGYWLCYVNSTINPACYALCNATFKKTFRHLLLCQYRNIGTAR
Assay: human FLIPR-based M4 PAM assay (CHO-K1 cells with human M4 receptor and Gαqi5, calcium dye fluorescence, EC20 acetylcholine)
Assay type: cell-based
Conditions: inflection point (IP) of the dose response curve, human M4 receptor/Gαqi5, acetylcholine at 20% of maximum response, read-out: M4PAM Hu IP
Protocol: (§1) In a typical experiment the M4 muscarinic acetylcholine receptor modulating activity of the compounds of the present invention was determined in accordance with the following experimental method. CHO-K1 cells stably transfected with human M4 receptor and chimeric G-protein Gαqi5 (Coward P, et al., Analytical Biochemistry, 270:242-248 (1999)) are thawed from liquid N2 storage, resuspended in growth medium, plated in black, clear bottom 384 well plates, and incubated 16-20 hours at 37° C., 5% CO2. On the day of assay, growth medium is removed, the cells are washed 2 times with wash buffer, and cells are incubated in dye loading buffer at 37° C., 5% CO2 for ˜1 hour. Following dye loading the cell plates are placed in a FLIPR Tetra instrument and while monitoring dye fluorescence (excitation […]), 10 uL of test substance at increasing concentrations is added, and fluorescence values are recorded for 4 min. Next, 10 uL of acetylcholine is added (final concentration calculated so as to achieve 20% of the maximum acetycholine response), and the fluorescence reading is continued for 3.5 min. In some cases, a third addition of acetylcholine (final concentration calculated to achieve 70% of the maximal acetylcholine response) is performed. The resulting dose response curves are fit to a 4 parameter logistic equation and the final result is determined as the inflection point (IP) of the curve
as §1, with “CHO-K1” for “In a typical experiment the M4 muscarinic acetylcholine receptor modulating activity of the compounds of the present invention was determined in accordance with the following experimental method. CHO-K1”, “Gαqi5” for “Gαqi5 (Coward P, et al., Analytical Biochemistry, 270:242-248 (1999))”, “performed.” for “performed. The resulting dose response curves are fit to a 4 parameter logistic equation and the final result is determined as the inflection point (IP) of the curve”

An EC50 of 72 nM was found for `N#Cc1ccc(-c2cnn(CC3CC34CC4)c2)c(-c2ccc3cccnc3c2)n1` (stereo not drawn) [Example 29, 6-quinolin-7-yl-5-[1-(spiro [2.2]pent-1-ylmethyl)-1H-pyrazol-4-yl]pyridine-2-carbonitrile] in this work.
An EC50 of 143 nM was found for `COc1cc2ccc(-c3nc(Cl)c(C)cc3-c3cnn(CCC(C)(C)OC)c3)cc2nn1` [Example 30, 7-{6-chloro-3-[1-(3-methoxy-3-methylbutyl)-1H-pyrazol-4-yl]-5-methylpyridin-2-yl}-3-methoxycinnoline] in this work.
An EC50 of 76 nM was found for `COc1cc2ccc(-c3nc(Cl)c(C)cc3-c3cnn(CC(C)(C)OC)c3)cc2nn1` [Example 31, 7-{6-chloro-3-[1-(2-methoxy-2-methylpropyl)-1H-pyrazol-4-yl]-5-methylpyridin-2-yl}-3-methoxycinnoline] in this work.
An EC50 of 113 nM was found for `COc1cc2ccc(-c3nc(C#N)c(C)cc3-c3cnn(CCC(C)(C)OC)c3)cc2nn1` [Example 32, 6-(3-methoxycinnolin-7-yl)-5-[1-(3-methoxy-3-methylbutyl)-1H-pyrazol-4-yl]-3-methylpyridine-2-carbonitrile] in this work.
An EC50 of 84 nM was found for `COc1cc2ccc(-c3nc(C#N)c(C)cc3-c3cnn(CC(C)(C)OC)c3)cc2nn1` [Example 33, 6-(3-methoxycinnolin-7-yl)-5-[1-(2-methoxy-2-methylpropyl)-1H-pyrazol-4-yl]-3-methylpyridine-2-carbonitrile] in this work.
An EC50 of 141 nM was found for `COc1cc2ccc(-c3nc(C)c(C)cc3-c3cnn(CCC(C)(C)OC)c3)cc2nn1` [Example 34, 3-methoxy-7-{3-[1-(3-methoxy-3-methylbutyl)-1H-pyrazol-4-yl]-5,6-dimethylpyridin-2-yl}cinnoline] in this work.
An EC50 of 187 nM was found for `COc1cc2ccc(-c3nc(C)c(C)cc3-c3cnn(CC(C)(C)OC)c3)cc2nn1` [Example 35, 3-methoxy-7-{3-[1-(2-methoxy-2-methylpropyl)-1H-pyrazol-4-yl]-5,6-dimethylpyridin-2-yl}cinnoline] in this work.
An EC50 of 14 nM was found for `COc1cc2ccc(-c3nc(C)ccc3-c3cnn(CCC(C)(C)F)c3F)cc2nn1` [Example 36, 7-{3-[5-fluoro-1-(3-fluoro-3-methylbutyl)-1H-pyrazol-4-yl]-6-methylpyridin-2-yl}-3-methoxycinnoline] in this work.
An EC50 of 25 nM was found for `CC(C)(C)Cn1cc(-c2ccc(C#N)nc2-c2ccc3cccnc3c2)cn1` [Example 37, 5-[1-(2,2-dimethylpropyl)-1H-pyrazol-4-yl]-6-quinolin-7-ylpyridine-2-carbonitrile] in this work.
An EC50 of 41 nM was found for `COc1cc2ccc(-c3nc(C#N)ccc3-c3cnn(CC(C)(C)C)c3)cc2nn1` [Example 38, 5-[1-(2,2-dimethylpropyl)-1H-pyrazol-4-yl]-6-(3-methoxycinnolin-7-yl)pyridine-2-carbonitrile] in this work.
An EC50 of 92 nM was found for `Cc1ccc2ccc(-c3nc(C#N)ccc3-c3cnn(CC(C)(C)C)c3)cc2n1` [Example 39, 5-[1-(2,2-dimethylpropyl)-1H-pyrazol-4-yl]-6-(2-methylquinolin-7-yl)pyridine-2-carbonitrile] in this work.
An EC50 of 208 nM was found for `CC(C)(C)Cn1cc(-c2ccc(C#N)nc2-c2cnc3cccnc3c2)cn1` [Example 40, 5-[1-(2,2-dimethylpropyl)-1H-pyrazol-4-yl]-6-(1,5-naphthyridin-3-yl)pyridine-2-carbonitrile] in this work.
An EC50 of 39 nM was found for `CC(C)(C)Cn1cc(-c2ccc(C#N)nc2-c2ccc3cc(F)cnc3c2)cn1` [Example 41, 5-[1-(2,2-dimethylpropyl)-1H-pyrazol-4-yl]-6-(3-fluoroquinolin-7-yl)pyridine-2-carbonitrile] in this work.
An EC50 of 47 nM was found for `CC(C)(C)Cn1cc(-c2ccc(C#N)nc2-c2ccc3cc(Cl)nnc3c2)cn1` [Example 42, 6-(3-chlorocinnolin-7-yl)-5-[1-(2,2-dimethylpropyl)-1H-pyrazol-4-yl]pyridine-2-carbonitrile] in this work.
An EC50 of 112 nM was found for `CC(C)(C)Cn1cc(-c2ccc(C#N)nc2-c2ccc3ccnnc3c2)cn1` [Example 43, 6-cinnolin-7-yl-5-[1-(2,2-dimethylpropyl)-1H-pyrazol-4-yl]pyridine-2-carbonitrile] in this work.
An EC50 of 61 nM was found for `N#Cc1ccc(-c2cnn(CC3(C(F)(F)F)CC3)c2)c(-c2ccc3cccnc3c2)n1` [Example 44, 6-quinolin-7-yl-5-(1-{[1-(trifluoromethyl)cyclopropyl]methyl}-1H-pyrazol-4-yl)pyridine-2-carbonitrile] in this work.
An EC50 of 60 nM was found for `COc1cc2ccc(-c3nc(C#N)ccc3-c3cnn(CC4(C(F)(F)F)CC4)c3)cc2nn1` [Example 45, 6-(3-methoxycinnolin-7-yl)-5-(1-{[1-(trifluoromethyl)cyclopropyl]methyl}-1H-pyrazol-4-yl)pyridine-2-carbonitrile] in this work.
An EC50 of 169 nM was found for `CC(C)C(O)Cn1cc(-c2ccc(C#N)nc2-c2ccc3cccnc3c2)cn1` (stereo not drawn) [Example 46, 5-[1-(2-hydroxy-3-methylbutyl)-1H-pyrazol-4-yl]-6-quinolin-7-ylpyridine-2-carbonitrile] in this work.
An EC50 of 88 nM was found for `N#Cc1nc(-c2ccc3cccnc3c2)c(-c2cnn(CC3(C(F)(F)F)CC3)c2)cc1F` [Example 47, 3-fluoro-6-quinolin-7-yl-5-(1-{[1-(trifluoromethyl)cyclopropyl]methyl}-1H-pyrazol-4-yl)pyridine-2-carbonitrile] in this work.
An EC50 of 220 nM was found for `COc1ccc(-c2cnn(CCC(C)C)c2)c(-c2ccc3cccnc3c2)n1` [Example 48, 7-{6-methoxy-3-[1-(3-methylbutyl)-1H-pyrazol-4-yl]pyridine-2-yl}quinoline] in this work.
An EC50 of 84 nM was found for `CC(C)CCn1cc(-c2ccc(C(F)(F)F)nc2-c2ccc3cccnc3c2)cn1` [Example 49, 7-{3-[1-(3-methylbutyl)-1H-pyrazol-4-yl]-6-(trifluoromethyl)pyridin-2-yl}quinoline] in this work.
An EC50 of 188 nM was found for `Cc1ccnc(-c2ccc3cccnc3c2)c1-c1cnn(CCC(C)C)c1` [Example 50, 7-{4-methyl-3-[1-(3-methylbutyl)-1H-pyrazol-4-yl]pyridin-2-yl}quinoline] in this work.
An EC50 of 414 nM was found for `COc1ccnc(-c2ccc3cccnc3c2)c1-c1cnn(CCC(C)C)c1` [Example 51, 7-{4-methoxy-3-[1-(3-methylbutyl)-1H-pyrazol-4-yl]pyridin-2-yl}quinoline] in this work.
An EC50 of 145 nM was found for `CC(C)CCn1cc(-c2cc(Cl)cnc2-c2ccc3cccnc3c2)cn1` [Example 52, 7-{5-chloro-3-[1-(3-methylbutyl)-1H-pyrazol-4-yl]pyridin-2-yl}quinoline] in this work.
An EC50 of 131 nM was found for `COc1cc2ccc(-c3ncc(Cl)cc3-c3cnn(CCC(C)C)c3)cc2nn1` [Example 53, 7-{5-chloro-3-[1-(3-methylbutyl)-1H-pyrazol-4-yl]pyridin-2-yl}-3-methoxycinnoline] in this work.
An EC50 of 53 nM was found for `COc1cc2ccc(-c3nc(C(F)F)ccc3-c3cnn(CC(C)(C)C)c3)cc2nn1` [Example 54, 7-{6-(difluoromethyl)-3-[1-(2,2-dimethylpropyl)-1H-pyrazol-4-yl]pyridin-2-yl}-3-methoxycinnoline] in this work.
An EC50 of 108 nM was found for `CC(C)(C)Cn1cc(-c2cc(F)cnc2-c2ccc3cccnc3c2)cn1` [Example 55, 7-{3-[1-(2,2-dimethylpropyl)-1H-pyrazol-4-yl]-5-fluoropyridin-2-yl}quinoline] in this work.
An EC50 of 275 nM was found for `Cc1nc(-c2ccc3cccnc3c2)c(-c2cnn(CC3(C(F)(F)F)CC3)c2)cc1C#N` [Example 56, 2-methyl-6-quinolin-7-yl-5-(1-{[1-(trifluoromethyl)cyclopropyl]methyl}-1H-pyrazol-4-yl)pyridine-3-carbonitrile] in this work.
An EC50 of 243 nM was found for `COc1cc2ccc(-c3nc(C)c(C#N)cc3-c3cnn(CC4(C(F)(F)F)CC4)c3)cc2nn1` [Example 57, 6-(3-methoxycinnolin-7-yl)-2-methyl-5-(1-{[1-(trifluoromethyl)cyclopropyl]methyl}-1H-pyrazol-4-yl)pyridine-3-carbonitrile] in this work.
An EC50 of 51 nM was found for `CC(C)(C)Cn1ncc(-c2ccc(C#N)nc2-c2ccc3cccnc3c2)c1F` [Example 58, 5-[1-(2,2-dimethylpropyl)-5-fluoro-1H-pyrazol-4-yl]-6-quinolin-7-ylpyridine-2-carbonitrile] in this work.
